Values quoted from earlier work in article PMC7449217, “The FDA-Approved Drug Nelfinavir Inhibits Lytic Cell-Free but Not Cell-Associated Nonlytic Transmission of Human Adenovirus” (Antimicrobial Agents and Chemotherapy, 2020).
Like-named read-outs stand apart in the source and are kept apart here.

Experiments:
HAdV-C2-dE3B-GFP = system: HAdV-C2-dE3B-GFP; set-up: method as in earlier work; details: A549, 1.25 μM compound, normalized to neg. ctr., cited from earlier work
A549 cells = details: cited from earlier work

Structure (SMILES) | Normalized mean read-outs: Infected nuclei (HAdV-C2-dE3B-GFP; analysis EPFL) | Normalized mean read-outs: Infection index (HAdV-C2-dE3B-GFP; analysis EPFL) | Normalized mean read-outs: Nuclei (HAdV-C2-dE3B-GFP; analysis EPFL) | Normalized mean read-outs: Plaques (HAdV-C2-dE3B-GFP; analysis EPFL) | Normalized mean read-outs: Virus intensity (HAdV-C2-dE3B-GFP; analysis EPFL) | Normalized mean read-outs: Infected nuclei (HAdV-C2-dE3B-GFP; analysis UZH) | Normalized mean read-outs: Infection index (HAdV-C2-dE3B-GFP; analysis UZH) | Normalized mean read-outs: Nuclei (HAdV-C2-dE3B-GFP; analysis UZH) | Normalized mean read-outs: Plaques (HAdV-C2-dE3B-GFP; analysis UZH) | Normalized mean read-outs: Virus intensity (HAdV-C2-dE3B-GFP; analysis UZH) | Toxic (A549 cells)
CCCCCCCCCCCCCCCC[N+](C)(C)CCN(Cc1ccc(OC)cc1)c1ncccn1 [Thonzonium bromide] | 0.45 | 0.56 | 0.81 | 0.56 | 0.50 AU | 0.54 | 0.63 | 0.84 | 0.54 | 0.49 AU | –
Cc1cc(N)c2ccccc2[n+]1CCCCCCCCCC[n+]1c(C)cc(N)c2ccccc21 [Dequalinium dichloride] | 0.33 | 0.46 | 0.71 | 0.44 | 0.38 AU | 0.49 | 0.62 | 0.79 | 0.51 | 0.37 AU | yes
Cc1cn([C@H]2C[C@H](F)[C@@H](CO)O2)c(=O)[nH]c1=O [3'-deoxy-3'-fluorothymidine] | 0.12 | 0.17 | 0.70 | 0.00148 | 0.32 AU | 0.13 | 0.15 | 0.83 | 0.00429 | 0.30 AU | no
Nc1c2ccccc2nc2ccccc12 [Aminacrine] | 0.60 | 0.42 | 1.42 | 0.67 | 0.51 AU | 0.53 | 0.62 | 0.87 | 0.75 | 0.50 AU | no
